Assays:
[1] = Determination of Maximum Tolerated Dose (MTD) in mice; conditions: mouse, in vivo, po; female C57BL/6 mice, p.o. daily for four days; highest dose without hypercalcemia (serum calcium >10.7 mg/dl)
[2] = system: Renin mRNA in As4.1 cells; assay: Renin mRNA inhibition in murine juxtaglomerular cell line As4.1; format: cell-based; conditions: Mus musculus, 24 h, real time PCR normalized versus β-actin, read-out: Renin mRNA inh.As4.1/wt
Description: As4.1 cells (80% subconfluent) were treated in complete medium with compounds of the invention at 10^−8, 10^−9 and 10^−10 M for 24 h. Total RNA was extracted using RNeasy Mini kit (Qiagen); treated with DNase I (Qiagen) and Reverse Transcription Reagent (Applied Biosystems) with Random Examers were used for reverse transcription according to the manufacturers' instructions. Real Time PCR analysis was performed in multiplex using commercially available β-actin VIC-conjugated probe (cat. n. 4352341E, Applied Biosystems) and custom designed mRENIN FAM-conjugated probe (Assay by Design, Applied Biosystems; Forward: […]; Reverse: […]; Probe: FAM-[…]-MGB). Reactions were performed in a 25 μL volume containing 12,5 μl 2× Master Mix (Applied Biosystems), 10 ng/reaction/well cDNA, and 2,5 μM each gene-specific primer. An ABI PRISM 7700 analyzer (Applied Biosystems) was used at 50° C. for 2 minutes and 95° C. for 10 minutes, followed by 40 cycles at 95° C. for 15 seconds and 60° C. for 1 minute. Cycle threshold (Ct) values were exported onto Excel worksheets for analysis. Test cDNA results were normalized versus mouse β-actin housekeeping gene. Fold differences in gene expression between the subtracted versus the unsubtracted populations were expressed using the method of 2^−ΔΔCt. (Table 6)

[3] = system: human stromal bladder cells; assay: Basal growth of human stromal bladder cells; format: cell-based; conditions: FIG. 2
Description: The Inventors confirmed the presence of vitamin D receptors (VDRs), as previously reported in the literature, on these cells (see below in FIG. 1).
The maximum tolerated dose (MTD) in rats is also listed for each compound (Table 5).

[4] = system: RT112; assay: Proliferation assay using bladder cancer cell lines: RT112; format: cell-based, human; conditions: Homo sapiens, RT-112; 72 h culture, CyQuant proliferation assay
Description: (§1) Bladder cancer cell lines (T24, RT112, HT1376 and RT4 are human bladder cancer cell lines; NHEK are normal human keratinocytes) were obtained from the European Collection of Cell Cultures (Salisbury, UK). Cells were plated at 3×10^3 per well, in flat bottomed 96-well plates in 100 μl of DMEM medium containing: 5% Fetal Clone 1,50 μg/l gentamicin, 1 mM sodium pyruvate and 1% non-essential amino acids. After culturing for 24 h at 37° C. in 5% CO2, to allow cells to adhere to the plates, VDR ligands (compounds (1)-(14)) were added at concentrations ranging from 100 μM to 0.3 μM in 100 μl of above-mentioned complete medium. After a further 72 h of culture, cell proliferation was measured using a fluorescence-based proliferation assay kit. (CyQuant Cell Proliferation Assay Kit, Molecular Probes, Eugene, Oreg., USA). The IC50 was calculated from the regression curve of the titration data.

[5] = system: NHEK; assay: Proliferation assay: NHEK normal human keratinocytes; format: cell-based; conditions: 72 h culture, CyQuant proliferation assay
Description: as §1

[6] = system: RT4; assay: Proliferation assay using bladder cancer cell lines: RT4; format: cell-based, human; conditions: Homo sapiens, RT-4; 72 h culture, CyQuant proliferation assay
Description: as §1

[7] = system: IFN-γ production by allogeneic PBMC; assay: IFN-γ production in the mixed leukocyte response (MLR); format: cell-based; conditions: 120 h; MLR of allogeneic PBMC, 5 days, ELISA; read-out: INF-γ IC50
Description: Immature dendritic cells (DC) were prepared as described in Romani, N. et al. (Romani, N. et al. (1996) J. Immunol. Meth. 196:137). IFN-γ production by allogeneic T cell activation in the mixed leukocyte response (MLR) was determined as described in Penna, G., et al., J Immunol., 164: 2405-2411 (2000).
Briefly, peripheral blood mononuclear cells (PBMC) were separated from buffy coats by Ficoll gradient and the same number (3×10^5) of allogeneic PBMC from 2 different donors were co-cultured in 96-well flat-bottom plates. The vitamin D3 compounds were added to each of the cultures.

| Structure (SMILES) | MTD at 4 days [1] | IC50 [2] | inhibiting the basal growth of bladder cells [3] | IC50 [4] | IC50 [5] | IC50 [6] | IC50 [7] |
| --- | --- | --- | --- | --- | --- | --- | --- |
| C=C1/C(=C\C=C2/CCC[C@]3(C)C(C4(CCCC(C)(C)O)CC4)=CCC23)CC(O)C[C@@H]1O (stereo partly drawn) [Compound 10, 1α,25-Dihydroxy-16-ene-20-cyclopropyl-cholecalciferol] | 1 µg/kg | 26.2 nM | effective | 27600 nM | 5200 nM | 2000 nM | – |
| C=C1/C(=C\C=C2/CCC[C@]3(C)C(C4(CC#CC(C)(C)O)CC4)=CCC23)CC(O)C[C@@H]1F (stereo partly drawn) [Compound 11, 1α-Fluoro-25-hydroxy-16-ene-23-yne-20-cyclopropyl-cholecalciferol] | 100 µg/kg | 303 nM | – | > 30000 nM | – | 16700 nM | 0.0164 nM |
| C=C1/C(=C\C=C2/CCC[C@]3(C)C(C4(C/C=C\C(O)(C(F)(F)F)C(F)(F)F)CC4)=CCC23)CC(O)C[C@@H]1F (stereo partly drawn) [Compound 14, 1α-Fluoro-25-hydroxy-16,23Z-diene-20-cyclopropyl-26,27-hexafluoro-cholecalciferol] | 1 µg/kg | 6 nM | – | 21000 nM | 4000 nM | 3100 nM | 0.081 nM |
| C=C1/C(=C\C=C2/CCC[C@]3(C)C(C4(C/C=C/C(O)(C(F)(F)F)C(F)(F)F)CC4)=CCC23)CC(O)C[C@@H]1F (stereo partly drawn) [Compound 13, 1α-Fluoro-25-hydroxy-16,23E-diene-20-cyclopropyl-26,27-hexafluoro-cholecalciferol] | 3 µg/kg | 9.5 nM | – | 17000 nM | 5100 nM | 3600 nM | 0.065 nM |
| C=C1/C(=C\C=C2/CCC[C@]3(C)C(C4(CC#CC(O)(C(F)(F)F)C(F)(F)F)CC4)=CCC23)CC(O)C[C@@H]1O (stereo partly drawn) [Compound 4, 1α,25-Dihydroxy-16-ene-20-cyclopropyl-23,24-yne-26,27 hexafluoro-cholecalciferol] | 0.3 µg/kg | 2.99 nM | effective | 13800 nM | 2000 nM | 1700 nM | 0.045 nM |
| C=C1/C(=C\C=C2/CCC[C@]3(C)C(C4(CC#CC(C)(C)O)CC4)=CCC23)CC(O)C[C@@H]1O (stereo partly drawn) [Compound 1, 1α,25-Dihydroxy-16-ene-20-cyclopropyl-23,24-yne-cholecalciferol] | 10 µg/kg | 9.42 nM | – | > 30000 nM | – | 10600 nM | 0.0336 nM |
| C=C1/C(=C\C=C2/CCC[C@]3(C)C(C4(C/C=C/C(O)(C(F)(F)F)C(F)(F)F)CC4)=CCC23)CC(O)C[C@@H]1O (stereo partly drawn) [Compound 6, 1α,25-Dihydroxy-16-ene-20-cyclopropyl-23,24-E-ene-26,27-hexafluoro-cholecalciferol] | 0.3 µg/kg | 0.547 nM | effective | 10600 nM | 5800 nM | 2300 nM | 0.04 nM |
| CC(C)(O)C#CCC1(C2=CCC3/C(=C/C=C4/CC(O)C[C@H](O)C4)CCC[C@]23C)CC1 (stereo partly drawn) [Compound 2, 1α,25-Dihydroxy-16-ene-20-cyclopropyl-23,24-yne-19-nor-cholecalciferol] | 10 µg/kg | 97.2 nM | – | > 30000 nM | – | 6300 nM | 0.0254 nM |
| C=C1/C(=C\C=C2/CCC[C@]3(C)C(C4(CC#CC(O)(C(F)(F)F)C(F)(F)F)CC4)=CCC23)CC(O)C[C@@H]1F (stereo partly drawn) [Compound 12, 1α-Fluoro-25-hydroxy-16-ene-20-cyclopropyl-23-yne-26,27-hexafluoro-cholecalciferol] | 0.3 µg/kg | 9.73 nM | – | 16900 nM | 1000 nM | 3600 nM | 0.585 nM |
| C[C@]12CCC/C(=C\C=C3\CC(O)C[C@H](O)C3)C1CC=C2C1(C/C=C/C(O)(C(F)(F)F)C(F)(F)F)CC1 (stereo partly drawn) [Compound 5, 1α,25-Dihydroxy-16-ene-20-cyclopropyl-23,24-E-ene-26,27-hexafluoro-19-nor-cholecalciferol] | – | 4.4 nM | – | 14500 nM | 4900 nM | 4600 nM | 0.012 nM |

— patent US20080318911A1, “20-Cyclopropyl, 26,27-Alkyl/Haloalkyl Vitamin D3 Compounds and Methods of Use Thereof” (BIOXELL S.P.A., priority 2004, published 2008)
